These results are taken from patent EP0385662B1, “Heterocycles with inhibitory activity of 5-lipoxygenase” (ZENECA LIMITED, priority 1989, dated 1990).

Test [1] relates to 5-LO. Put plainly: Test c): ex vivo variation of test b), oral administration, blood collection, A23187 challenge, radioimmunoassay of LTB4. The test is classed as in vivo. Here is the method: (§1) As stated previously, the heterocycles of the formula I are inhibitors of the enzyme 5-LO. […] This test provides a measure of the intrinsic inhibitory properties against soluble 5-LO in an extracellular environment. • b) An in vitro assay system involving incubating a test compound with heparinised human blood, prior to challenge with the calcium ionophore A23187 and then indirectly measuring the inhibitory effects on 5-LO by assaying the amount of L TB4 using the specific radioimmunoassay described by Carey and Forder (F. Carey and R.A. Forder, Brit. J. Pharmacol. 1985, 84, 34P) which involves the use of a protein-L TB4 conjugate produced using the procedure of Young et alia (Prostaglandins, 1983, 26(4), 605-613). The effects of a test compound on the enzyme cyclooxygenase (which is involved in the alternative metabolic pathway for arachidonic acid and gives rise to prostaglandins, thromboxanes and related metabolites) may be measured at the same time using the specific radioimmunoassay for thromboxane B2(TxB2) described by Carey and Forder (see above). This test provides an indication of the effects of a test compound against 5-LO and also cyclooxygenase in the presence of blood cells and proteins. It permits the selectivity of the inhibitory effect on 5-LO or cyclooxygenase to be assessed. • c) An ex vivo assay system, which is a variation of test b) above, involving administration of a test compound (usually orally as the suspension produced when a solution of the test compound in dimethylsulphoxide is added to carboxymethylcellulose), blood collection, heparinisation, challenge with A23187 and radioimmunoassay of L TB4 and TxB2. […]

The target of test [2] is T1, 5-LO (Homo sapiens, UniProt P09917).
T1 construct: incubating a test compound with heparinised human blood, prior to challenge with the calcium ionophore A23187; endogenous in cells; host or cells: leukocytes of heparinised human whole blood
T1 sequence (P09917 1-674): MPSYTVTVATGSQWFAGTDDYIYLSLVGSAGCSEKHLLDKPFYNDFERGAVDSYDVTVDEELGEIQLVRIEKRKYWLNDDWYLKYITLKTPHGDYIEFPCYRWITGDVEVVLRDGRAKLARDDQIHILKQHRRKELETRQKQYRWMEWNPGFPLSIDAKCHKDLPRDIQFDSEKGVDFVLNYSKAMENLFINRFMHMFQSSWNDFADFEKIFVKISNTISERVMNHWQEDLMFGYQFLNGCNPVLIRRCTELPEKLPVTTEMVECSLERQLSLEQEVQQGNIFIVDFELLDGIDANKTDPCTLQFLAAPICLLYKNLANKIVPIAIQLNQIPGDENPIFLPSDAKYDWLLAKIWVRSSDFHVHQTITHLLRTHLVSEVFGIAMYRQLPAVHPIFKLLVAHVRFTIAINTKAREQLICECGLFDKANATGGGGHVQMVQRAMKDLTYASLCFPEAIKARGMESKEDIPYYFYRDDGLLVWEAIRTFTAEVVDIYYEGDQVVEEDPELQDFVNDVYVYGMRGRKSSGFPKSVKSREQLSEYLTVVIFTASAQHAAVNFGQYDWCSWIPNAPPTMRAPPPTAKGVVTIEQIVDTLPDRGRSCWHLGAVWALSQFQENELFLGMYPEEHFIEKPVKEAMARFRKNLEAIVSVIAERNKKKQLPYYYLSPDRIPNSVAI
As to the kind of experiment: Test b): in vitro heparinised human blood challenged with calcium ionophore A23187, radioimmunoassay of LTB4. Type of test: cell-based. As to conditions: A23187 challenge, read-out: IC50 against LTB4. The method, then:
as §1, with “J. Pharmacol. 1985, 84, 34P) which involves the use of a protein-L TB4 conjugate produced using the procedure of Young et alia (Prostaglandins, 1983, 26(4), 605-613).” left out, “This test provides an indication of the effects of a test compound against 5-LO and also cyclooxygenase in the presence of blood cells and proteins.” left out

The next test addresses T2, cyclooxygenase (Homo sapiens, UniProt P23219).
T2 construct: may be measured at the same time using the specific radioimmunoassay for thromboxane B2(TxB2); endogenous in cells; host or cells: blood cells (platelets) of heparinised human whole blood
As to the kind of experiment: Test b): in vitro heparinised human blood challenged with A23187, radioimmunoassay of thromboxane B2 (TxB2). Type of test: cell-based. As to conditions: A23187 challenge, read-out: IC50 against TxB2. Here is the method: as §1, with “J. Pharmacol. 1985, 84, 34P) which involves the use of a protein-L TB4 conjugate produced using the procedure of Young et alia (Prostaglandins, 1983, 26(4), 605-613).” left out, “This test provides an indication of the effects of a test compound against 5-LO and also cyclooxygenase in the presence of blood cells and proteins.” left out

T2 sequence (P23219 24-599): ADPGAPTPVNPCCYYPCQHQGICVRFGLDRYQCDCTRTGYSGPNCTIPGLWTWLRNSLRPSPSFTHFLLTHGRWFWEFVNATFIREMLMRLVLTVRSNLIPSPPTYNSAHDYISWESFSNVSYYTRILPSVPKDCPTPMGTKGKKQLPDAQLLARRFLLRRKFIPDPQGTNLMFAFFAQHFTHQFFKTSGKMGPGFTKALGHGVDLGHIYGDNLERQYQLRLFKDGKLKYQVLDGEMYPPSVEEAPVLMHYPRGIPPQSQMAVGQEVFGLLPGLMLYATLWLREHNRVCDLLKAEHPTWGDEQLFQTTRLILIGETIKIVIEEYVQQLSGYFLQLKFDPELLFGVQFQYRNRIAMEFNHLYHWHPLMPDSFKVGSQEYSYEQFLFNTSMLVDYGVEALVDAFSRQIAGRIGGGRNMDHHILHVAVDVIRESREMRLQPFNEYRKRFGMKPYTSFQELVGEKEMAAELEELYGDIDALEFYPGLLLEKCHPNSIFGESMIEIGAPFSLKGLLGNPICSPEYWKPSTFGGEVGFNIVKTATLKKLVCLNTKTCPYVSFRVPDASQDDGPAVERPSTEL

As to `COC1(c2cccc(OCc3ccc4c(ccc(=O)n4C)c3)c2)CCOCC1` [4-[3-(1,2-dihydro-1-methyl-2-oxoquinolin-6-ylmethoxy)phenyl]-4-methoxytetrahydropyran], the “oral ED50 against LTB4” value with 5-LO [1] is given as 3 mg/kg.

The IC50 is the concentration needed to halve the response being measured. As to `COC1(c2cc(F)cc(OCc3ccc4ncccc4c3)c2)CCOCC1` [4-[5-fluoro-3-(6-quinolylmethoxy)phenyl]-4-methoxytetrahydropyran], the “oral ED50 against LTB4” value in the test with 5-LO [1] was determined as 8 mg/kg. In addition, the IC50 on 5-LO [2] turned out to be 100 nM.

On to `COC1(c2cccc(OCC#Cc3ccccn3)c2)CCOCC1` [4-methoxy-4-[3-(3-(2-pyridyl)prop-2-yn-1-yloxy)phenyl]-tetrahydropyran], for which the IC50 was greater than 40 µM at cyclooxygenase and 2000 nM on 5-LO [2]. Also, the “oral ED50 against LTB4” value in the test on 5-LO [1] is listed as less than 100 mg/kg.
